According to US20250235418A1, “Butyrate Analogues and Methods of Use for HIF Stabilization and Treatment of Bowel Disease” (THE REGENTS OF THE UNIVERSITY OF COLORADO, A BODY CORPORATE, priority 2022, published 2025):
Entries after “also recorded” stand apart in the source; their conditions may differ. Like-named read-outs stand apart in the source and are kept apart here. Values belong to the compound of their own block, whether it stands above or below them.

Columns and labels:
PHD2181-402 [1] = target: T1, PHD2181-402 (Homo sapiens, UniProt Q9GZT9); assay: bioluminescent succinate detection assay of recombinant PHD2181-402 activity/inhibition; type: biochemical; conditions: for fold less effective at inhibiting PHD2181-402 than butyrate: compared with butyrate
T1 construct: made in house
Description: To pinpoint if butyrate inhibits PHDs directly, we expressed recombinant PHD derived from the human PHD2 sequence. There are three human PHDs: PHD1, PHD2, and PHD3, with PHD2 being the most abundant and expressed in the majority of tissues, the most important regulator of HIF, particularly HIF-1α, and the only PHD that is embryonically lethal when deleted. PHD1 is exclusively localized to the nucleus, whereas PHD2 is mainly cytoplasmic, and PHD3 is both. […] Sequence comparisons and modeling studies indicate that the PHD2 active site is highly conserved among the PHDs.
IC50s depend on exact experimental conditions, making direct comparisons and global applications difficult.

PHDs = conditions: range across studies, assay conditions vary; read-out: reported IC50s; cited from earlier work
[2] = tested on: PHD (2-OG accumulation) in T84 IECs; assay: 2-OG levels in T84 cells as biomarker of PHD inhibition; type: cell-based; conditions: 3 h, 10 mM butyrate, 30 μM IOX2
Procedure: (B) 2-OG concentrations in T84 cells treated with 10 mM butyrate with or without 1 mM MCPA or 30 μM IOX2 for 3 h
The relationship between butyrate and HIF, were examined whether butyrate influences PHD activity by monitoring 2-OG levels. […] In this, we considered such 2-OG accumulation as a metabolic biomarker of PHD inhibition (FIG. 3A).

[3] = tested on: HIF-1α / PHDs in murine colon tissue; assay: rectal gavage of butyrate or IOX2 in antibiotic SCFA-depleted mice; type: in vivo; conditions: 1 h, 100 mM butyrate, 1.5 mM IOX2
HIF1α in caco-2 cells = assay: HIF1α MSD assay and immunoblot in caco-2 cells; type: cell-based; conditions: for BNIP3 immunoblot over time: c2bbe cell lysates, various timepoints
Procedure: (A) Structures of butyrate derivatives investigated in initial screen for HIF stabilization. […] (D) Dose response study of HIF1a accumulation in T84 cells treated with decreasing concentrations of MBA and BA for 6 h.
(A) Immunoblots of HIF1a protein over time after exposure of T84 cells to 5 mM BA and MBA. (B) Mesoscale assay of HIF1a protein over time in caco-2 cells treated with 5 mM MBA compared to veh. […] Data are presented as mean+S.E.M, *p<0.05, **p<0.01, ***p<0.001.
HIF1a Mesoscale assay of BA derivatives investigated in caco-2 (A) and T84 (B) intestinal epithelial cells (5 mM, 6 h), identifying MBA as a promising candidate in HIF1a stabilization (Veh=HBSS+).
(§1) Endogenous and non-endogenous butyrate derivatives with specifically chosen functional groups at different positions within the small molecule and assess their effects on HIF stabilization (FIG. 21A). To study a small library of butyrate derivatives we employed an electrochemiluminescence based assay to quantify HIF1α levels using the Meso Scale Discovery (HIF1α MSD assay, http://www.mesoscale.com) technology. Similar to the sandwich enzyme-linked immunosorbent assay (ELISA), this technology captures and detects HIF1α protein using two specific antibodies but utilizes electrochemiluminescence-based signal generation and detection. Using lysates from intestinal epithelial cells (IECs) caco-2 and T84 exposed to a physiological relevant concentration of 5 mM butyrate derivatives for 4h, this assay was employed to determine HIF1α protein concentration. A bona-fide and potent PHD2 inhibitor (IOX4) was used to stabilize HIF1α as a positive control. Various butyrate derivatives increased HIF1α relative concentration in both cell lines compared to low signals detected in untreated lysates. […] We decided to focus on this interesting butyrate derivative for further studies.
(§2) To elucidate the effectiveness of MBA to stabilize HIF1α over time and possibly shine light on how quickly it can be metabolized in-vitro, time-course studies where performed between BA and MBA, IOX4 was used as a positive control. […] Employing the HIF1α MSD assay, we screened for various timepoints in caco-2 cell lysates exposed to MBA (5 mM). […] BNIP3 is involved in cell survival and is a known HIF1α target that is induced through chemical stabilization of HIF or hypoxia. BNIP3 promoter comprises a functional hypoxia response element (HRE) and can be activated by HIF1α.[5] Parallel to our HIF stabilization time course studies, we wanted to assess the transcriptional activity of the stabilized protein over time.

HIF1α in T84 cells = assay: HIF1α immunoblot in T84 cells (MBA vs BA); type: cell-based; conditions: for HIF1α stabilization over time (immunoblot): 5 mM BA and MBA, IOX4 positive control
Procedure: (A) Structures of butyrate derivatives investigated in initial screen for HIF stabilization. Immunoblot of HIF1a protein levels in Caco-2 cells (B) and T84 cells (C) exposed to veh (HBSS+), […], or 5 mM butyrate derivatives for 6h. (D) Dose response study of HIF1a accumulation in T84 cells treated with decreasing concentrations of MBA and BA for 6 h.
(A) Immunoblots of HIF1a protein over time after exposure of T84 cells to 5 mM BA and MBA. (B) Mesoscale assay of HIF1a protein over time in caco-2 cells treated with 5 mM MBA compared to veh. (C) HIF1a and HIF target (BNIP3) protein in caco-2 cells exposed to veh (HBSS+), […] or 5 mM MBA. Data are presented as mean+S.E.M, *p<0.05, **p<0.01, ***p<0.001.
as §1, §2

[4] = tested on: HIF target genes in T84 cells; assay: real-time PCR of HIF target genes BNIP3 and CAIX in T84 cells; type: cell-based; conditions: 16h
Procedure: (A) Exposure of T84 cells to Veh, BA or MBA (5 mM, 16 h) induced HIF target gene expression of CAIX and BNIP3. […] (C) Non-targeting control and T84 HIF1b depleted cells were analyzed for HIF1b expression by western blotting, shown with a representative blot. Quantification of HIF1b decrease was performed using ACTB-normalized densitometry. qPCR data was analyzed by One-way ANOVA with Bonferroni for post hoc correction and presented as mean±S.E.M, **p<0.01, ***p<0.001, ****p<0.0001 of three independent experiments.
Following these findings, we then explored if the MBA-induced stabilization of HIF was reflected in the transcriptional regulation of target genes. We utilized real-time PCR to study the influence of MBA mediated HIF stabilization in the induction of established HIF targets, BNIP3 (cell survival) and CAIX (pH regulation).
Furthermore, to confirm MBA-induced HIF transcriptional activity, we quantified the induction of BNIP3 and CAIX by BA or MBA (5 mM, 16h) in lentiviral shRNA-mediated knockdown of HIF1β relative to non-targeting shRNA controls. […] These findings confirm that through MBA exposure, HIF is stabilized and it is transcriptionally active.

HIF regulated targets = assay: intraperitoneal injection in C57BL/6 mice, HIF regulated targets (EPO, GLUT1); type: in vivo; conditions: MBA 80 mg/kg, 24h
Procedure: Erythropoietin (EPO) is regulated by HIF stabilization. (A) EPO protein in blood serum was assessed by mesoscale assay (n=6-8). qPCR mRNA expression of HIF target mGLUT1 in kidney (B) and colon tissue (C) (n=3-8). Data analyzed by One-way ANOVA with Tukey for post hoc correction and presented as mean±S.E.M of two independent experiments, *p<0.05, **p<0.01, ***p<0.001, ****p<0.0001 […]
At 24 h, mice were sacrificed followed by exsanguination, extraction of right kidney and distal colon for analysis of HIF stabilization and HIF target gene expression. SHBA induces HIF regulated targets in vivo. Erythropoietin (EPO) is regulated by HIF stabilization. (A) EPO protein in blood serum was assessed by mesoscale assay (n=6-8). (B) qPCR mRNA expression of HIF target mGLUT1 in colon tissue (n=3-4). Data are presented as mean±S.E.M of two independent experiments, *p<0.05, **p<0.01.
A typical physiologic response to hypoxia is the increase in red blood cell production. Naturally, HIF is in charge of this response by regulating cell-type specific gene expression that leads to increased levels of the hormone erythropoietin (EPO).[10] […] We lastly explored the in-vivo effects of MBA in mediating induction of genes tightly regulated by HIF. […] After 24h of treatment, they were sacrificed and quickly exsanguinated to measure EPO levels in serum. […] Furthermore, we studied the induction of GLUT1, another classic HIF target responsible for the transport of various monosaccharides. Kidney and colon tissue were analyzed by real-time PCR to compare BA and MBA head-to-head. […] These findings support the ability of MBA to stabilize HIF in-vivo leading to the induction of classic target genes and transcription of a tightly regulated protein EPO.

PHD2181-402 [5] = target: T1, PHD2181-402; assay: WaterLOGSY 1D NMR binding to PHD2181-402; conditions: 10 mM SCFA, 25 μM PHD2181-402
Description: Protons attached to C4 were selectively inverted and acted as source of magnetization transfer. […] (G) Protons attached to C2 were selectively inverted.
Measurements were repeated 3 times.
This method enables sensitive and robust detection of binding (dissociation constants as weak as μM to low mM) based on the magnetization transfer between water molecules, proteins, and ligands of interest in close proximity via dipolar proton-proton cross-relaxation (nuclear Overhauser effect, NOE). […] Binding and non-binding ligands can be distinguished in a WaterLOGSY spectrum via their opposite signs in relation to water for their corresponding peaks.
This technique allows for mapping of the ligand pharmacophore by monitoring the response of individual protons to an increase of ROEs contribution to the overall cross relaxation rate.

[6] = calculated from measured IC50 accounting for substrate conversion, n = 4, error: SEM, read-out: True IC50 for PHD2181-402

T1 sequence (Q9GZT9 181-402): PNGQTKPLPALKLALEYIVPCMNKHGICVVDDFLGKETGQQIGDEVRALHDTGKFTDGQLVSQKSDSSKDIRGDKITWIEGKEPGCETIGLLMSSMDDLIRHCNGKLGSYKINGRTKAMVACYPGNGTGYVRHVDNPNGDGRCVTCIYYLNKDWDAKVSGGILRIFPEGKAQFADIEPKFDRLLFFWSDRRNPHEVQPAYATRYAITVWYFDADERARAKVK

SMILES: CCC(CC)C(=O)O [2-Ethylbutyrate]
IC50 (PHD2181-402 [1]; [6]): 77 ± 6 mM

SMILES: COC(=O)CNC(=O)C(=O)OC [DMOG, dimethyloxalylglycine, reference compound]
IC50 (PHD2181-402 [1]; 1 μM PHD2181-402, 10 μM 2-OG, 10-minute reaction, n=5-12, error: SEM, read-out: true half maximal inhibitory concentration (IC50) for PHD2181-402): 1.9 ± 0.5 mM
IC50 (PHDs): 0.00289 to 4 mM

SMILES: O=C(O)CNC(=O)c1c(O)c2ccccc2n(Cc2ccccc2)c1=O [IOX2, reference compound]
2-OG levels compared to control [2]: to lesser extent than butyrate
colon tissue 2-OG levels after antibiotics [3]: rescued
mRNA expression of HIF-1α targets Bnip3, Bnip3l, Glu1 after antibiotics [3]: rescued

SMILES: CC(C)(C)OC(=O)c1ccc(-n2[nH]cc(-n3ccnn3)c2=O)nc1 [IOX4, reference compound]
BNIP3 immunoblot over time (HIF1α in caco-2 cells): supported active HIF1α transcription
HIF1α stabilization over time (immunoblot) (HIF1α in T84 cells; T84 cells): no longer effective at the 72h timepoint

SMILES: O=C(O)CCCS [MBA, 4-Mercaptobutyrate]
BNIP3 immunoblot over time (HIF1α in caco-2 cells): supported active HIF1α transcription
HIF1α immunoblot compared with IOX4 (HIF1α in caco-2 cells; caco-2, 5 mM MBA vs IOX4 (10 μM)): at least as much as IOX4
HIF1α immunoblot compared with butyrate (HIF1α in caco-2 cells; caco-2, equimolar concentration (5 mM)): exceeding the capabilities of butyrate
HIF1α relative concentration over time (MSD assay) (HIF1α in caco-2 cells; caco-2 cell lysates, 5 mM, up to 72h): rapidly stabilized (3h)
HIF1α relative concentration (MSD assay) (HIF1α in caco-2 cells; caco-2 lysates, 5 mM, compared with IOX4): exceeded HIF stabilization in caco-2 compared to the potent IOX4 PHD2 inhibitor
HIF1α immunoblot compared with butyrate (HIF1α in T84 cells; T84, equimolar concentration (5 mM)): exceeding the capabilities of butyrate
HIF1α stabilization over time (immunoblot) (HIF1α in T84 cells; T84 cells): observed clearly up to 72h
dose response of HIF1α accumulation (HIF1α in T84 cells; T84 cells, decreasing concentrations, 6 h): can stabilize HIF at the low millimolar range
HIF target gene induction compared to BA ([4]; T84, 5 mM): more potent than BA; also recorded: more prominent induction of HIF target genes compared to BA
induction of HIF target genes BNIP3 and CAIX ([4]; T84, 5 mM): significant induction
induction of BNIP3 and CAIX in cells lacking HIF1β ([4]; T84 HIF1β shRNA knockdown, 5 mM): complete loss of induction
GLUT1 mRNA in colon tissue (HIF regulated targets; IP, BA 73 mg/kg): significantly increased in colon tissue
GLUT1 mRNA in kidney (HIF regulated targets; IP, BA 73 mg/kg): induction of GLUT1 in kidney
EPO concentration in serum (HIF regulated targets; one IP injection, compared to vehicle, DMOG and BA): significantly higher concentration of EPO

SMILES: CCC(=O)O [propionate, propionic acid, reference compound]
fold less effective at inhibiting PHD2181-402 than butyrate (PHD2181-402 [1]): ~10 fold
binding to PHD2181-402 by WaterLOGSY (PHD2181-402 [5]): no binding

Now from value to compound:

IC50 (PHD2181-402 [1]; [6]): 14 ± 1 mM
SMILES: CC(O)CC(=O)O (centres unmarked) [3-Hydroxybutyrate]

fold less effective at inhibiting PHD2181-402 than butyrate (PHD2181-402 [1]): ~10 fold
binding to PHD2181-402 by WaterLOGSY (PHD2181-402 [5]): no binding
SMILES: CC(=O)O [acetate, Acetic acid, reference compound]

fold less effective at inhibiting PHD2181-402 than butyrate (PHD2181-402 [1]): ~3 fold
binding to PHD2181-402 by WaterLOGSY (PHD2181-402 [5]): no binding
SMILES: CCCCC(=O)O [valerate, valeric acid, reference compound]
